Values of other authors, collected in US11833157B2, “Precipitation resistant small molecule drug formulations” (Xeris Pharmaceuticals, Inc., priority 2017, dated 2023).

System: febrile seizures
Details: short term diazepam prophylaxis at times of fever; 39% without

## CN1C(=O)CN=C(c2ccccc2)c2cc(Cl)ccc21 [diazepam]
  18 month recurrence rate: 12%
